Measured values reported in US20250143299A1, “METHODS AND COMPOSITIONS FOR CONTROLLING PESTS IN VEGETABLES” (Globachem NV, priority 2022, published 2025).

Columns and labels:
Format in all cases: in vivo
Tomato = assay: Example 1 phytotoxicity, general injury (PHYGEN) on tomato; conditions: appl. A
Excerpt: “Low Phytotoxicity” of pelargonic acid, as used herein means that the toxic effect on plants is absent or at such a level so as not to adversely impact the growth and/or yield of the plant under a given set of test conditions, e.g., at a given concentration of pelargonic acid. Phytotoxic effects may be measured in a number of different ways, for example, according to the principals set out in OEPP/EPPO Bulletin (2014) 44(3), 265-273 “PP 1/135 (4) Phytotoxicity assessment”. The phytotoxic effect on plants may be assessed visually as a function of the percentage of discoloration to the leaves and/or the appearance of necrosis. When the pelargonic acid compositions are applied to the foliage of the vegetable plants in accordance with the teachings herein, will typically result in a level of phytotoxicity of less than 20%, preferably less than 15%, more preferably less than 10% necrosis of the leaves in comparison to untreated plants. Preferred uses of the invention will typically result in phytotoxicity of 7% or less, whilst the most preferred uses will typically result in phytotoxicity of 5% or less. The above values are approximate as any purely visual assessment is likely to contain a degree of subjectivity.
Trial conducted in 4 replicates on plots of 10 plants each. Application A was made at the occurrence of the insects.

Acyrthosiphon pisum = assay: Example 6 pea trial, Acyrthosiphon pisum (pea aphid) control; conditions: appl. A
Excerpt: Peas—Acyrthosiphon pisum (Pea Aphid)
(§1) Trial conducted on peas, variety Navarro, 4 replicates per plot. Each plot was at least 12 m^2, a water volume of 200 L water per ha was used for the application.
(§2) Insects present at the time of application A: 106 aphids per 20 shoots. The stage of the crop at application A was BBCH 75-77, and at application B, (14 DAA) BBCH 79-81.

Pea = assay: Example 6 phytotoxicity, necrosis/burn (PHYNEC) on pea; design: scale not given here; conditions: appl. AB
Excerpt: as §1, §2

[1] = system: Leptinotarsa decemlineata; assay: Example 8 Trial 2 potato, Leptinotarsa decemlineata (LEPTNDE) control; conditions: appl. AB
Excerpt: Trial 2: Potatoes, 4 replicates per plot, each plot at least 25 m^2. A water volume of 200 L water/ha was used for each application. Two applications were made at a 14d interval.
Application made at the occurrence of the insects. Application A was made at Stage BBCH 39-41, application B was made 14 days later at Stage BBCH 41-44.
Insects present at the time of application: at App A: 9/10 plants at App B in untreated: 44/10 plants

CCCCCCCCC(=O)O [PA, pelargonic acid]
Phytotoxicity - General Injury (PHYGEN) (Tomato; 650 g/ha (1 L/ha), 0 DAA): 0% | Phytotoxicity - General Injury (PHYGEN) (Tomato; 650 g/ha (1 L/ha), 2 DAA): 0% | Phytotoxicity - General Injury (PHYGEN) (Tomato; 650 g/ha (1 L/ha), 8 DAA): 0% | Phytotoxicity - General Injury (PHYGEN) (Tomato; 650 g/ha (1 L/ha), 15 DAA): 0% | Phytotoxicity - General Injury (PHYGEN) (Tomato; 1300 g/ha (2 L/ha), 0 DAA): 0% | Phytotoxicity - General Injury (PHYGEN) (Tomato; 1300 g/ha (2 L/ha), 2 DAA): 0% | Phytotoxicity - General Injury (PHYGEN) (Tomato; 1300 g/ha (2 L/ha), 8 DAA): 0% | Phytotoxicity - General Injury (PHYGEN) (Tomato; 1300 g/ha (2 L/ha), 15 DAA): 0% | Phytotoxicity - General Injury (PHYGEN) (Tomato; 2600 g/ha (4 L/ha), 0 DAA): 0% | Phytotoxicity - General Injury (PHYGEN) (Tomato; 2600 g/ha (4 L/ha), 2 DAA): 0% | Phytotoxicity - General Injury (PHYGEN) (Tomato; 2600 g/ha (4 L/ha), 8 DAA): 0% | Phytotoxicity - General Injury (PHYGEN) (Tomato; 2600 g/ha (4 L/ha), 15 DAA): 0% | COUINS (count of insects), 20 shoots (Acyrthosiphon pisum; 585 g/ha (0.9 L/ha), 3 DAA (1st column)): 31.44 % UNCK | COUINS (count of insects), 20 shoots (Acyrthosiphon pisum; 585 g/ha (0.9 L/ha), 3 DAA (2nd column)): 31.34 % UNCK | COUINS (count of insects), 20 shoots (Acyrthosiphon pisum; 585 g/ha (0.9 L/ha), 3 DAA (3rd column)): 30.01 % UNCK | COUINS (count of insects), 20 shoots (Acyrthosiphon pisum; 975 g/ha (1.5 L/ha), 3 DAA (1st column)): 34.03 % UNCK | COUINS (count of insects), 20 shoots (Acyrthosiphon pisum; 975 g/ha (1.5 L/ha), 3 DAA (2nd column)): 33.84 % UNCK | COUINS (count of insects), 20 shoots (Acyrthosiphon pisum; 975 g/ha (1.5 L/ha), 3 DAA (3rd column)): 35.76 % UNCK | COUINS (count of insects), 20 shoots (Acyrthosiphon pisum; 1300 g/ha (2.0 L/ha), 3 DAA (1st column)): 52.54 % UNCK | COUINS (count of insects), 20 shoots (Acyrthosiphon pisum; 1300 g/ha (2.0 L/ha), 3 DAA (2nd column)): 52.47 % UNCK | COUINS (count of insects), 20 shoots (Acyrthosiphon pisum; 1300 g/ha (2.0 L/ha), 3 DAA (3rd column)): 53.62 % UNCK | COUINS (count of insects), 20 shoots (Acyrthosiphon pisum; 2600 g/ha (4.0 L/ha), 3 DAA (1st column)): 65.75 % UNCK | COUINS (count of insects), 20 shoots (Acyrthosiphon pisum; 2600 g/ha (4.0 L/ha), 3 DAA (2nd column)): 65.86 % UNCK | COUINS (count of insects), 20 shoots (Acyrthosiphon pisum; 2600 g/ha (4.0 L/ha), 3 DAA (3rd column)): 65.31 % UNCK | Phytotoxicity - Necrosis/burn (PHYNEC) (Pea; 585 g/ha (0.9 L/ha), 7 DAA): 0 | Phytotoxicity - Necrosis/burn (PHYNEC) (Pea; 585 g/ha (0.9 L/ha), 14 DAA): 0 | Phytotoxicity - Necrosis/burn (PHYNEC) (Pea; 975 g/ha (1.5 L/ha), 7 DAA): 0 | Phytotoxicity - Necrosis/burn (PHYNEC) (Pea; 975 g/ha (1.5 L/ha), 14 DAA): 0 | Phytotoxicity - Necrosis/burn (PHYNEC) (Pea; 1300 g/ha (2.0 L/ha), 7 DAA): 3 | Phytotoxicity - Necrosis/burn (PHYNEC) (Pea; 1300 g/ha (2.0 L/ha), 14 DAA): 3 | Phytotoxicity - Necrosis/burn (PHYNEC) (Pea; 2600 g/ha (4.0 L/ha), 7 DAA): 37.5 | Phytotoxicity - Necrosis/burn (PHYNEC) (Pea; 2600 g/ha (4.0 L/ha), 14 DAA): 37.5 | COUINS # L1-L3/10 plants ([1]; 585 g/ha (0.9 L/ha), 7 DAA): 51.7 % UNCK | COUINS # L4/10 plants ([1]; 585 g/ha (0.9 L/ha), 7 DAA): 45 % UNCK | COUINS # L1-L3/10 plants ([1]; 585 g/ha (0.9 L/ha), 10 DAB): 68.6 % UNCK | COUINS # L4/10 plants ([1]; 585 g/ha (0.9 L/ha), 10 DAB): 64.2 % UNCK | COUINS Adults/10 plants ([1]; 585 g/ha (0.9 L/ha), 10 DAB): 48 % UNCK | COUINS # L1-L3/10 plants ([1]; 975 g/ha (1.5 L/ha), 7 DAA): 48.5 % UNCK | COUINS # L4/10 plants ([1]; 975 g/ha (1.5 L/ha), 7 DAA): 35 % UNCK | COUINS # L1-L3/10 plants ([1]; 975 g/ha (1.5 L/ha), 10 DAB): 76 % UNCK | COUINS # L4/10 plants ([1]; 975 g/ha (1.5 L/ha), 10 DAB): 77 % UNCK | COUINS Adults/10 plants ([1]; 975 g/ha (1.5 L/ha), 10 DAB): 55 % UNCK | COUINS # L1-L3/10 plants ([1]; 1300 g/ha (2.0 L/ha), 7 DAA): 70.9 % UNCK | COUINS # L4/10 plants ([1]; 1300 g/ha (2.0 L/ha), 7 DAA): 59.9 % UNCK | COUINS # L1-L3/10 plants ([1]; 1300 g/ha (2.0 L/ha), 10 DAB): 89.8 % UNCK | COUINS # L4/10 plants ([1]; 1300 g/ha (2.0 L/ha), 10 DAB): 86.2 % UNCK | COUINS Adults/10 plants ([1]; 1300 g/ha (2.0 L/ha), 10 DAB): 69 % UNCK | COUINS # L1-L3/10 plants ([1]; 2600 g/ha (4.0 L/ha), 7 DAA): 73.4 % UNCK | COUINS # L4/10 plants ([1]; 2600 g/ha (4.0 L/ha), 7 DAA): 80.9 % UNCK | COUINS # L1-L3/10 plants ([1]; 2600 g/ha (4.0 L/ha), 10 DAB): 93.4 % UNCK | COUINS # L4/10 plants ([1]; 2600 g/ha (4.0 L/ha), 10 DAB): 92.8 % UNCK | COUINS Adults/10 plants ([1]; 2600 g/ha (4.0 L/ha), 10 DAB): 78.9 % UNCK
